Earlier results on one compound are cited in PMC4333608 (Chemical Science, 2014).

As a reminder, the IC50 is the concentration that inhibits the measured activity by half.

This data set addresses T1, São Paulo metallo-β-lactamase-1 (SPM-1) (Pseudomonas aeruginosa, UniProt Q8G9Q0).
T1 sequence (Q8G9Q0 29-276): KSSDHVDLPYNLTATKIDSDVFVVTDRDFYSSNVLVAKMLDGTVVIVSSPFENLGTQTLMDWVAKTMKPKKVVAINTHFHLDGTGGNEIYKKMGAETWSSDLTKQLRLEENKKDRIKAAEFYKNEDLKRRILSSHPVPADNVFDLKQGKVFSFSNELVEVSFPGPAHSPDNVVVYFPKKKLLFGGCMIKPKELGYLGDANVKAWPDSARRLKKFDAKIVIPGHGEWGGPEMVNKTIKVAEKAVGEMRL
Put plainly: enzyme inhibition IC50. The class given is biochemical.

Each structure is given as a SMILES string.

Take `O=C(O)c1cc(CS)cc(CS)c1` [3,5-bis(mercaptomethyl)benzoic acid]: the concentration for half-maximal inhibition (IC50) was 700 nM.
